Laboratory results published in PubChem BioAssay AID248 (DTP/NCI, 2004).
Values joined by “and” are separate entries in the source; they are usually repeats but may differ in a detail not shown here. Equal values may be shown once. Inconclusive results and toxic doses are left out. No stated cut-off is given here; in the data, active means T/C of 150% or more; inactive means T/C below 125%.

Test system: L1210 leukemia ip in BDF1 mice, survival T/C
Experiment: NCI In Vivo Anticancer Drug Screen. Data for tumor model L1210 Leukemia (intraperitoneal) in B6D2F1 (BDF1) mice
Settings: endpoint: mean survival time, higher = longer survival
Method in brief: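 Tumor cells were implanted, animals were treated, and survival was followed. The result divides the treated measurement by the vehicle-control measurement.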

[1] = dose: 100.0 mg/kg/injection, schedule: Q04DX003 (ip), vehicle: Klucel (hydroxypropylcellulose) (HPC)
[2] = dose: 200.0 mg/kg/injection, schedule: Q04DX003 (ip), vehicle: Klucel (hydroxypropylcellulose) (HPC)
[3] = dose: 400.0 mg/kg/injection, schedule: Q04DX003 (ip), vehicle: Klucel (hydroxypropylcellulose) (HPC)
[4] = dose: 100.0 mg/kg/injection, schedule: Q01DX009 (ip), vehicle: Klucel (hydroxypropylcellulose) (HPC)
[5] = dose: 200.0 mg/kg/injection, schedule: Q01DX009 (ip), vehicle: Klucel (hydroxypropylcellulose) (HPC)
[6] = dose: 100.0 mg/kg/injection, schedule: Q04DX003 (ip), vehicle: saline

Measured: T/C

Cc1cc(S(=O)(=O)Cl)c(Cl)cc1Cl
inactive: dose: 100.0 mg/kg/injection, schedule: Q01DX001 (ip), vehicle: saline 96 % of control | dose: 200.0 mg/kg/injection, schedule: Q01DX001 (ip), vehicle: saline 103 % of control | dose: 400.0 mg/kg/injection, schedule: Q01DX001 (ip), vehicle: saline 96 % of control

CCC(C)(O)C#N (centres undefined)
inactive: dose: 2.2 mg/kg/injection, schedule: Q01DX Z (ip), vehicle: saline 104 % of control | dose: 3.3 mg/kg/injection, schedule: Q01DX Z (ip), vehicle: saline 94 % of control | dose: 5.0 mg/kg/injection, schedule: Q01DX Z (ip), vehicle: saline 98 % of control

CC(Oc1ccc([N+](=O)[O-])cc1Cl)C(=O)Nc1ccc(S(=O)(=O)F)cc1 (centres undefined)
inactive: [1] 100 % of control | [2] 100 % of control | [3] 92 % of control

CCC/C=N/Nc1ccnc(SCc2ccccc2)n1
inactive: dose: 75.0 mg/kg/injection, schedule: Q01DX009 (ip), vehicle: DMSO 88 % of control

N#C/C(=N/O)c1ccccn1
inactive: [4] 96 % of control | dose: 100.0 mg/kg/injection, schedule: Q01DX009 (ip), vehicle: saline 100 % of control | [5] 100 % of control | dose: 200.0 mg/kg/injection, schedule: Q01DX009 (ip), vehicle: saline 107 % of control | dose: 400.0 mg/kg/injection, schedule: Q01DX009 (ip), vehicle: saline 92 % of control

Cc1ccc(S(=O)(=O)N(CCCc2c(C)[nH]c(=S)[nH]c2=O)c2ccccc2)cc1
inactive: dose: 50.0 mg/kg/injection, schedule: Q04DX002 (ip), vehicle: Klucel (hydroxypropylcellulose) (HPC) 91 % of control | dose: 100.0 mg/kg/injection, schedule: Q04DX002 (ip), vehicle: Klucel (hydroxypropylcellulose) (HPC) 100 % of control and 91 % of control | dose: 200.0 mg/kg/injection, schedule: Q04DX002 (ip), vehicle: Klucel (hydroxypropylcellulose) (HPC) 100 % of control and 91 % of control | dose: 400.0 mg/kg/injection, schedule: Q04DX002 (ip), vehicle: Klucel (hydroxypropylcellulose) (HPC) 100 % of control

CCOC(=O)N1Cc2cc3cc4c(cc3nc2C1)OCO4
inactive: [6] 94 % of control | dose: 200.0 mg/kg/injection, schedule: Q04DX003 (ip), vehicle: saline 94 % of control | dose: 400.0 mg/kg/injection, schedule: Q04DX003 (ip), vehicle: saline 96 % of control

C1=C(N2CCCCC2)C2CCC1C2 (centres undefined)
inactive: dose: 75.0 mg/kg/injection, schedule: Q01DX001 (ip), vehicle: saline 99 % of control

Cc1cccn2ncnc12
inactive: dose: 50.0 mg/kg/injection, schedule: Q01DX001 (ip), vehicle: alcohol 106 % of control | dose: 100.0 mg/kg/injection, schedule: Q01DX001 (ip), vehicle: alcohol 107 % of control | dose: 200.0 mg/kg/injection, schedule: Q01DX001 (ip), vehicle: alcohol 102 % of control

CCC1C(=O)OCc2c1c(Br)cn(C)c2=O (centres undefined)
inactive: dose: 12.5 mg/kg/injection, schedule: Q04DX003 (ip), vehicle: saline 98 % of control | dose: 12.5 mg/kg/injection, schedule: Q04DX003 (oral), vehicle: saline with Tween-80 100 % of control | dose: 25.0 mg/kg/injection, schedule: Q01DX001 (ip), vehicle: saline with Tween-80 101 % of control | dose: 25.0 mg/kg/injection, schedule: Q04DX003 (ip), vehicle: saline 97 % of control | dose: 25.0 mg/kg/injection, schedule: Q04DX003 (oral), vehicle: saline with Tween-80 100 % of control | dose: 50.0 mg/kg/injection, schedule: Q01DX001 (ip), vehicle: saline with Tween-80 93 % of control | dose: 50.0 mg/kg/injection, schedule: Q04DX003 (ip), vehicle: saline 108 % of control | dose: 50.0 mg/kg/injection, schedule: Q04DX003 (oral), vehicle: saline with Tween-80 104 % of control | dose: 100.0 mg/kg/injection, schedule: Q01DX001 (ip), vehicle: saline with Tween-80 97 % of control | [6] 93 % of control | dose: 100.0 mg/kg/injection, schedule: Q04DX003 (oral), vehicle: saline with Tween-80 96 % of control | dose: 200.0 mg/kg/injection, schedule: Q01DX001 (ip), vehicle: saline with Tween-80 101 % of control

Cc1cc2c(cc1C)NC(=O)C(C)CN2 (centres undefined)
inactive: [4] 103 % of control | [1] 98 % of control | [5] 108 % of control | [2] 103 % of control | dose: 400.0 mg/kg/injection, schedule: Q01DX009 (ip), vehicle: Klucel (hydroxypropylcellulose) (HPC) 95 % of control | [3] 101 % of control
